In publication PMC11053944, “FRET Assays for the Identification of C. albicans HSP90-Sba1 and Human HSP90α-p23 Binding Inhibitors” (Pharmaceuticals, 2024):
Entries after “also recorded” stand apart in the source; their conditions may differ. Read-outs that look alike come from different tables or passages of the source.

Columns and labels:
[1] = target: T1, C. albicans HSP90-mNeonGreen–Sba1-mScarlet-I binding (Candida albicans, UniProt P46598, E36A); settings: 20 µM added; 1 µM HSP90-mNeonGreen, 2 µM Sba1-mScarlet-I, 5 mM ATP
T1 construct: made in house; host or cells: E. coli BL21(DE3)
Description: (§1) In this investigation, 1 µM HSP90-mNeonGreen was incubated with 2 µM Sba1-mScarlet-I in reaction buffer containing 5 mM ATP either alone (UC) or with the addition of 20 µM Sba1. As a negative control, samples containing 20 µM bovine serum albumin (BSA) were used.
(§2) FRET experiments were carried out in 384-well microtiter plates (Art. No. 3766 Corning, NY, USA, or Art. No. 781906, Greiner Bio-One GmbH, Frickenhausen, Germany) containing a final volume of 20 µL and measured with a microplate reader Infinite M200Pro (Tecan, Männedorf, Switzerland). The fluorescence was measured in three channels: excitation (ex.): 488 nm/emission (em.): 525 nm (mNeonGreen fluorescence), ex.: 561 nm/em.: 610 nm (mScarlet-I fluorescence) and the FRET channel ex.: 488 nm/em.: 610 nm. The excitation and emission bandwidths were set to 9 and 20 nm, respectively. Experiments for the determination of the equilibrium dissociation constants were performed with a filter-based microplate reader Infinite F200Pro (Tecan, Männedorf, Switzerland). The fluorescence was measured in three channels using the following filters: ex.: 485 ± 20 nm/em.: 535 ± 20 nm (mNeonGreen channel), ex.: 535 ± 20 nm/em.: 612 ± 10 nm (mScarlet-I channel) and the FRET channel ex.: 485 ± 20 nm/em.: 612 ± 10 nm. FRET emission (EmFRET) was calculated according to Song et al. 2011 [81]:(1) EmFRET=FLDA−x×FLDD−(y×FLAA) where FLDA is the fluorescence signal of the FRET channel and FLDD and FLAA are fluorescence signals from the mNeonGreen and mScarlet-I channels, respectively. The correction factors x and y were calculated as follows:(2) x=FLDA/FLDD for samples containing only the donor fluorophore or fluorescent fusion proteins with mNeonGreen and (3) y=FLDA/FLAA for samples containing only the acceptor fluorophore or fluorescent fusion proteins with mScarlet-I in the same concentration as samples containing both the donor and acceptor.
All experiments were carried out in reaction buffer (40 mM HEPES/KOH pH 7.5, 20 mM KCl, 5 mM MgCl2, 20 mM Na2MoO4, Triton-X 100 0.1%). HEPES and KCl were purchased from AppliChem, Darmstadt, Germany. […]

[2] = target: T2, human HSP90α-mNeonGreen–p23-mScarlet-I binding (Homo sapiens, UniProt P07900, E47A); assay: FRET characterization of model inhibitors and ATP on human HSP90α-p23 binding; settings: 20 µM added; 1 µM HSP90α-mNeonGreen, 2 µM p23-mScarlet-I, 5 mM ATP
T2 construct: made in house; host or cells: E. coli Rosetta2(DE3) pLysS
Description: as §1, §2
All experiments were carried out in reaction buffer (40 mM HEPES/KOH pH 7.5, 20 mM KCl, 5 mM MgCl2, 20 mM Na2MoO4, Triton-X 100 0.1%). HEPES and KCl were purchased from AppliChem, Darmstadt, Germany. KOH and MgCl2 were obtained from VWR Chemicals, Darmstadt, Germany. Na2MoO4 was from Merck, Darmstadt, Germany. Triton-X 100 was purchased from Serva, Heidelberg, Germany.
For C. albicans Sba1 competition experiments for HSP90-mNeonGreen–Sba1-mScarlet-I binding, 1 µM HSP90-mNeonGreen and 1 µM Sba1-mScarlet-I were incubated with varying concentrations of Sba1 in a range of 0–25,000 nM (lowest non-zero concentration 12 nM) in reaction buffer containing 5 mM ATP. The experiment was performed twice in nonaplicates. For human p23 competition experiments for HSP90α-mNeonGreen–p23-mScarlet-I binding, 1 µM HSP90α-mNeonGreen and 1 µM p23-mScarlet-I were incubated with varying concentrations of p23 in a range of 0–50 000 nM (lowest non-zero concentration 23 nM) in reaction buffer containing 5 mM ATP. The experiment was performed twice in hexaplicates. […] The experiment was performed thrice in triplicates. […] The IC50,rel values were calculated using the equation log (inhibitor) vs. response-variable slope (four parameters) in GraphPad Prism 5. Ki values for inhibition of HSP90-mNeonGreen–Sba1-mScarlet-I/p23-mScarlet-I binding by non-labeled Sba1/p23 were calculated with One Site—Fit Ki in GraphPad Prism 5. […] The EC50,rel values were calculated using the log (agonist) vs. response-variable slope (four parameters) equation in GraphPad Prism 5.

[3] = target: T3, C. albicans HSP90–Sba1 binding (Candida albicans, UniProt P46598); assay: FRET inhibitor screening assay, C. albicans HSP90-Sba1 binding; settings: 10 or 100 µM (Sba1 20 µM), triplicates, 3 mM ATP, 1% DMSO, 15 min 30 °C
T3 construct: made in house; host or cells: E. coli BL21(DE3)
Description: We used the Z′ factor (Z′) to optimize the FRET assays for screening purposes. Z′ represents a simple statistical parameter for the quality assessment and optimization of HTS assays and screening assays in general. It is a measure that determines the degree of signal separation between binding and non-binding data sets. Calculation of the Z′ factor is based on the standard deviation of the individual data sets as well as their general signal separation. Values ≥ 0.5 can be classified as excellent for screening purposes. […] When the fluorescent fusion proteins of HSP90 and co-chaperones bind to each other, FRET occurs between donor and acceptor fluorophores, and the sensitized emission (EmFRET) signal increases. Consequently, the fluorescence intensity of the donor decreases (FLDD). […] To obtain an informative Z′ value, we calculated it based on at least three independent experiments amounting to 144 samples for both binding and non-binding control data sets (Figure 4B,E). […] We defined the ‘hit threshold’ as a decrease in readout signal of more than 3 standard deviations (SDs) from the mean signal of the binding control. This constitutes a common threshold for hit identification in HTS campaigns.
as §2
For screening for the identification of ATP-competitive C. albicans HSP90 and HSP90-Sba1 binding inhibitors, 10 µL of HSP90-mNeonGreen ([…]) in HEPES buffer (40 mM HEPES/KOH pH 7.5, 20 mM KCl) was mixed with 10 µL of 200 µM compound solution in 2x reaction buffer (40 mM HEPES/KOH pH 7.5, 20 mM KCl, 10 mM MgCl2, 40 mM Na2MoO4, Triton-X 100 0.2%), 6 mM ATP, 2% DMSO, resulting […] Samples for binding control (3 mM ATP, final concentration) and non-binding control (no ATP) were prepared in the same manner without compounds. The samples were incubated for 15 min at 30 °C prior to measurement.

[4] = target: T4, human HSP90α–p23 binding (Homo sapiens, UniProt P07900); assay: FRET inhibitor screening assay, human HSP90α-p23 binding; settings: 10 or 100 µM, triplicates, 3 mM ATP, 1% DMSO, 15 min 37 °C
T4 construct: made in house; host or cells: E. coli Rosetta2(DE3) pLysS
Description: We used the Z′ factor (Z′) to optimize the FRET assays for screening purposes. Z′ represents a simple statistical parameter for the quality assessment and optimization of HTS assays and screening assays in general. It is a measure that determines the degree of signal separation between binding and non-binding data sets. Calculation of the Z′ factor is based on the standard deviation of the individual data sets as well as their general signal separation. Values ≥ 0.5 can be classified as excellent for screening purposes. […] When the fluorescent fusion proteins of HSP90 and co-chaperones bind to each other, FRET occurs between donor and acceptor fluorophores, and the sensitized emission (EmFRET) signal increases. Consequently, the fluorescence intensity of the donor decreases (FLDD). […] We defined the ‘hit threshold’ as a decrease in readout signal of more than 3 standard deviations (SDs) from the mean signal of the binding control. This constitutes a common threshold for hit identification in HTS campaigns.
The excitation and emission bandwidths were set to 9 and 20 nm, respectively. Experiments for the determination of the equilibrium dissociation constants were performed with a filter-based microplate reader Infinite F200Pro (Tecan, Männedorf, Switzerland). […] The correction factors x and y were calculated as follows:(2) x=FLDA/FLDD for samples containing only the donor fluorophore or fluorescent fusion proteins with mNeonGreen and (3) y=FLDA/FLAA for samples containing only the acceptor fluorophore or fluorescent fusion proteins with mScarlet-I in the same concentration as samples containing both the donor and acceptor.
For screening for the identification of ATP-competitive C. albicans HSP90 and HSP90-Sba1 binding inhibitors, 10 µL of HSP90-mNeonGreen (2 µM) and Sba1-mScarlet-I (4 µM) in HEPES buffer (40 mM HEPES/KOH pH 7.5, 20 mM KCl) was mixed with 10 µL of 200 µM compound solution in 2x reaction buffer (40 mM HEPES/KOH pH 7.5, 20 mM KCl, 10 mM MgCl2, 40 mM Na2MoO4, Triton-X 100 0.2%), 6 mM ATP, 2% DMSO, resulting ultimately in constant HSP90-mNeonGreen concentrations of 1 µM and Sba1-mScarlet-I 2 µM in reaction buffer. Samples for binding control (3 mM ATP, final concentration) and non-binding control (no ATP) were prepared in the same manner without compounds. The samples were incubated for 15 min at 30 °C prior to measurement. The assay for the human HSP90α–p23 binding inhibitor identification was performed analogously, with the exception that samples were incubated for 15 min at 37 °C prior to measurement. Since binding samples show both a high EmFRET as well as a reduction in donor emission (FLDD), we calculated the quotient (EmFRET/FLDD) to derive an improved signal separation and robustness. The nucleoside-mimetics library was obtained from Enamine (catalog No. NML-320-X-20, Enamine Ltd., Kyiv, Ukraine). Z′ and Z factors were calculated based on Zhang et al..

[5] = test system: HSP90 - Sba1/p23 binding; settings: according to literature, cited from earlier work

T3 sequence (P46598 whole entry): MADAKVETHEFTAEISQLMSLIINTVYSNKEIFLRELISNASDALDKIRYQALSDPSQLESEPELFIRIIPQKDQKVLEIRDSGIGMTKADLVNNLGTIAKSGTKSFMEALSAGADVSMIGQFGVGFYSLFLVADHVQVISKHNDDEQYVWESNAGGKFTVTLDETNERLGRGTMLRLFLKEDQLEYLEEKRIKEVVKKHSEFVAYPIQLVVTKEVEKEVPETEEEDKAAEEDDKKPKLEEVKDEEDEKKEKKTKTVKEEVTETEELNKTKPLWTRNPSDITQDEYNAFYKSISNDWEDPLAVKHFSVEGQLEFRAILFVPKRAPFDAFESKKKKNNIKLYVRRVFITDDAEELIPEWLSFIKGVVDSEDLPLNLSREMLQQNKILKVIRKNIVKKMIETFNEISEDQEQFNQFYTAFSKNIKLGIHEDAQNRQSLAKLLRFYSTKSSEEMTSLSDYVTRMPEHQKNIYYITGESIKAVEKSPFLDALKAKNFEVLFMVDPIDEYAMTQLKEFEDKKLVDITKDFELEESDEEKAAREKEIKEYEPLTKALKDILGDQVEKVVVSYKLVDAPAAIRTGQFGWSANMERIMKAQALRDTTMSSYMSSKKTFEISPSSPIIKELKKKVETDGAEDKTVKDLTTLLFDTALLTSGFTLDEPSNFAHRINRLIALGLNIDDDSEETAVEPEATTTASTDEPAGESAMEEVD
T1 sequence (P46598 whole entry, stated change not applied): as the sequence (P46598 whole entry) above

| Compound | effect on FRET emission (EmFRET) versus untreated control [1] | effect on FRET emission (EmFRET) versus untreated control [2] | hit identification (EmFRET/FLDD decrease of more than 3 SDs from binding control mean) [3] | hit identification (EmFRET/FLDD decrease of more than 3 SDs from binding control mean) [4] | Influence on p23/Sba1 binding [5] | hit identification (EmFRET/FLDD decrease of more than 3 SDs from binding control mean) ([3]; listed as luminespib) | Influence on p23/Sba1 binding ([5]; listed as Withaferin A) |
| --- | --- | --- | --- | --- | --- | --- | --- |
| bovine serum albumin [BSA] | did not show a significant influence; also recorded: no significant (n.s.) reduction | did not show a significant influence |  |  |  |  |  |
| CC1=C(O)C(=O)C=C2C1=CC=C1[C@@]2(C)CC[C@@]2(C)[C@@H]3C[C@](C)(C(=O)O)CC[C@]3(C)CC[C@]12C [celastrol] |  |  | show no influence | show no influence | No and not influence |  |  |
| COc1cc2c(cc1OC)[C@@H]1C(=O)c3ccc4c(c3O[C@@H]1CO2)C=CC(C)(C)O4 [deguelin] |  |  | do not show an effect; also recorded: show no influence | show no influence |  |  |  |
| CCNC(=O)c1noc(-c2cc(C(C)C)c(O)cc2O)c1-c1ccc(CN2CCOCC2)cc1 [NVP-AUY922, luminespib] |  |  | reliably identified as hits |  | Yes | reliably identified as disrupting HSP90-Sba1 binding |  |
| COc1cc(C2Oc3cc([C@H]4Oc5cc(O)cc(O)c5C(=O)[C@@H]4O)ccc3OC2CO)ccc1O (stereo partly drawn) [silibinin] |  |  | do not show an effect; also recorded: show no influence | show no influence |  |  |  |
| C[C@@H]1C[C@H]2O[C@@H]2/C=C\C=C\C(=O)Cc2c(Cl)c(O)cc(O)c2C(=O)O1 [radicicol] |  |  | reliably identified as disrupting HSP90-Sba1 binding; also recorded: reliably identified as hits |  | Yes |  |  |
| O=C(O[C@@H]1Cc2c(O)cc(O)cc2O[C@@H]1c1cc(O)c(O)c(O)c1)c1cc(O)c(O)c(O)c1 [EGCG, (−)-Epigallocatechin-3-gallate] |  |  | pan-assay interfering compound (PAIN) | strong decrease in FRET emission; also recorded: pan-assay interfering compound (PAIN) | Yes |  |  |
| CC1=C(CO)C(=O)O[C@@H]([C@@H](C)[C@H]2CC[C@H]3[C@@H]4C[C@H]5O[C@]56[C@@H](O)C=CC(=O)[C@]6(C)[C@H]4CC[C@]23C)C1 [withaferin A] |  |  | do not show an effect; also recorded: show no influence | show no influence | not influence |  | No |
